Data from ChEMBL document CHEMBL5038625, “Application of the dual-tail approach for the design and synthesis of novel Thiopyrimidine-Benzenesulfonamide hybrids as selective carbonic anhydrase inhibitors” (Eur J Med Chem, 2022).

Tests used:
[1] = target: Carbonic anhydrase 9 (Homo sapiens, UniProt Q16790); assay: Inhibition of human CA9 preincubated for 15 mins by phenol red dye based stopped flow CO2 hydration assay
[2] = test system: SF-539; assay: Antiproliferative activity against human SF-539 cells assessed as cell growth inhibition at 10 uM incubated for 24 hrs by sulforhodamine B assay; format: functional; conditions: read-out: GI
[3] = test system: CCRF-CEM; assay: Antiproliferative activity against human CCRF-CEM cells assessed as cell growth inhibition at 10 uM incubated for 24 hrs by sulforhodamine B assay; format: functional; conditions: read-out: GI
[4] = test system: HL-60; assay: Antiproliferative activity against human HL-60 cells assessed as cell growth inhibition at 10 uM incubated for 24 hrs by sulforhodamine B assay; format: functional; conditions: read-out: GI
[5] = test system: K562; assay: Antiproliferative activity against human K562 cells assessed as cell growth inhibition at 10 uM incubated for 24 hrs by sulforhodamine B assay; format: functional; conditions: read-out: GI
[6] = test system: MOLT-4; assay: Antiproliferative activity against human MOLT-4 cells assessed as cell growth inhibition at 10 uM incubated for 24 hrs by sulforhodamine B assay; format: functional; conditions: read-out: GI
[7] = test system: RPMI-8226; assay: Antiproliferative activity against human RPMI-8226 cells assessed as cell growth inhibition at 10 uM incubated for 24 hrs by sulforhodamine B assay; format: functional; conditions: read-out: GI
[8] = test system: SR; assay: Antiproliferative activity against human SR cells assessed as cell growth inhibition at 10 uM incubated for 24 hrs by sulforhodamine B assay; format: functional; conditions: read-out: GI
[9] = test system: A549; assay: Antiproliferative activity against human A549 cells assessed as cell growth inhibition at 10 uM incubated for 24 hrs by sulforhodamine B assay; format: functional; conditions: read-out: GI
[10] = test system: HOP-62; assay: Antiproliferative activity against human HOP-62 cells assessed as cell growth inhibition at 10 uM incubated for 24 hrs by sulforhodamine B assay; format: functional; conditions: read-out: GI
[11] = Antiproliferative activity against human […] cells assessed as cell growth inhibition at 10 uM incubated for 24 hrs by sulforhodamine B assay; format: functional; conditions: read-out: GI
[12] = test system: NCI-H522; assay: Antiproliferative activity against human NCI-H522 cells assessed as cell growth inhibition at 10 uM incubated for 24 hrs by sulforhodamine B assay; format: functional; conditions: read-out: GI
[13] = test system: HCC 2998; assay: Antiproliferative activity against human HCC 2998 cells assessed as cell growth inhibition at 10 uM incubated for 24 hrs by sulforhodamine B assay; format: functional; conditions: read-out: GI
[14] = test system: HCT-116; assay: Antiproliferative activity against human HCT-116 cells assessed as cell growth inhibition at 10 uM incubated for 24 hrs by sulforhodamine B assay; format: functional; conditions: read-out: GI
[15] = test system: HT-29; assay: Antiproliferative activity against human HT-29 cells assessed as cell growth inhibition at 10 uM incubated for 24 hrs by sulforhodamine B assay; format: functional; conditions: read-out: GI
[16] = test system: SNB-75; assay: Antiproliferative activity against human SNB-75 cells assessed as cell growth inhibition at 10 uM incubated for 24 hrs by sulforhodamine B assay; format: functional; conditions: read-out: GI
[17] = test system: U-251; assay: Antiproliferative activity against human U-251 cells assessed as cell growth inhibition at 10 uM incubated for 24 hrs by sulforhodamine B assay; format: functional; conditions: read-out: GI
[18] = test system: LOX IMVI; assay: Antiproliferative activity against human LOX IMVI cells assessed as cell growth inhibition at 10 uM incubated for 24 hrs by sulforhodamine B assay; format: functional; conditions: read-out: GI
[19] = test system: OVCAR-4; assay: Antiproliferative activity against human OVCAR-4 cells assessed as cell growth inhibition at 10 uM incubated for 24 hrs by sulforhodamine B assay; format: functional; conditions: read-out: GI
[20] = test system: OVCAR-5; assay: Antiproliferative activity against human OVCAR-5 cells assessed as cell growth inhibition at 10 uM incubated for 24 hrs by sulforhodamine B assay; format: functional; conditions: read-out: GI
[21] = test system: 786-0; assay: Antiproliferative activity against human 786-0 cells assessed as cell growth inhibition at 10 uM incubated for 24 hrs by sulforhodamine B assay; format: functional; conditions: read-out: GI
[22] = test system: A498; assay: Antiproliferative activity against human A498 cells assessed as cell growth inhibition at 10 uM incubated for 24 hrs by sulforhodamine B assay; format: functional; conditions: read-out: GI
[23] = test system: ACHN; assay: Antiproliferative activity against human ACHN cells assessed as cell growth inhibition at 10 uM incubated for 24 hrs by sulforhodamine B assay; format: functional; conditions: read-out: GI
[24] = test system: PC-3; assay: Antiproliferative activity against human PC-3 cells assessed as cell growth inhibition at 10 uM incubated for 24 hrs by sulforhodamine B assay; format: functional; conditions: read-out: GI
[25] = test system: DU-145; assay: Antiproliferative activity against human DU-145 cells assessed as cell growth inhibition at 10 uM incubated for 24 hrs by sulforhodamine B assay; format: functional; conditions: read-out: GI
[26] = test system: Hs-578T; assay: Antiproliferative activity against human HS-578T cells assessed as cell growth inhibition at 10 uM incubated for 24 hrs by sulforhodamine B assay; format: functional; conditions: read-out: GI
[27] = test system: MDA-MB-468; assay: Antiproliferative activity against human MDA-MB-468 cells assessed as cell growth inhibition at 10 uM incubated for 24 hrs by sulforhodamine B assay; format: functional; conditions: read-out: GI
[28] = test system: T47D; assay: Antiproliferative activity against human T47D cells assessed as reduction in cell viability incubated for 24 hrs by sulforhodamine B assay; format: functional, cell-based
[29] = test system: MDA-MB-231; assay: Antiproliferative activity against human MDA-MB-231 cells assessed as reduction in cell viability incubated for 24 hrs by sulforhodamine B assay; format: functional, cell-based; conditions: MDA-MB-231, 24 h
[30] = test system: COLO 205; assay: Antiproliferative activity against human COLA 205 cells assessed as reduction in cell viability incubated for 24 hrs by sulforhodamine B assay; conditions: COLO 205, 24 h
[31] = test system: SW-620; assay: Antiproliferative activity against human SW-620 cells assessed as reduction in cell viability incubated for 24 hrs by sulforhodamine B assay; conditions: SW-620, 24 h
[32] = test system: A549; assay: Antiproliferative activity against human A549 cells assessed as reduction in cell viability incubated for 24 hrs by sulforhodamine B assay; conditions: A549, 24 h
[33] = test system: MCF7; assay: Cell cycle arrest in human MCF7 cells assessed as accumulation at G2 phase incubated for 48 hrs by propidium iodide staining based flow cytometric analysis (reference value: 20.73 %); format: functional
[34] = test system: MCF7; assay: Induction of apoptosis in human MCF cells assessed as early apoptotic cells measured after 48 hrs by Annexin-V-FITC/propidium iodide staining based flow cytometry (reference value: 0.09%); format: functional
[35] = test system: MCF7; assay: Induction of apoptosis in human MCF cells assessed as necrotic cells measured after 48 hrs by Annexin-V-FITC/propidium iodide staining based flow cytometry (reference value: 0.94%); format: functional
[36] = test system: MDA-MB-231; assay: Induction of apoptosis in human MDA-MB-231 cells assessed as viable cells measured after 48 hrs by Annexin-V-FITC/propidium iodide staining based flow cytometry (reference value: 97.93%); format: functional
[37] = test system: MDA-MB-231; assay: Induction of apoptosis in human MDA-MB-231 cells assessed as early apoptotic cells measured after 48 hrs by Annexin-V-FITC/propidium iodide staining based flow cytometry (reference value: 0.02%); format: functional
[38] = test system: MDA-MB-231; assay: Induction of apoptosis in human MDA-MB-231 cells assessed as late apoptotic cells measured after 48 hrs by Annexin-V-FITC/propidium iodide staining based flow cytometry (reference value: 0.91%); format: functional
[39] = test system: MDA-MB-231; assay: Induction of apoptosis in human MDA-MB-231 cells assessed as necrotic cells measured after 48 hrs by Annexin-V-FITC/propidium iodide staining based flow cytometry (reference value: 1.13%); format: functional
[40] = test system: MDA-MB-231; assay: Antiproliferative activity against human MDA-MB-231 cells assessed as cell growth inhibition at 10 uM incubated for 24 hrs by sulforhodamine B assay; format: functional; conditions: read-out: GI

## COc1ccc(OC)c(-c2nc(SCC(=O)c3ccc(Br)cc3)nc(Nc3ccc(S(N)(=O)=O)cc3)c2C#N)c1
[1]
  Ki: 0.0868 µM
[2]
  inhibition of growth at 10 µM: 71.6%
[3]
  inhibition of growth at 10 µM: 64.7%
[4]
  inhibition of growth at 10 µM: 74.1%
[5]
  inhibition of growth at 10 µM: 77.5%
[6]
  inhibition of growth at 10 µM: 71.5%
[7]
  inhibition of growth at 10 µM: 48.8%
[8]
  inhibition of growth at 10 µM: 86.1%
[9]
  inhibition of growth at 10 µM: 32.5%
[10]
  inhibition of growth at 10 µM: 51.6%
[11]
  inhibition of growth at 10 µM: 18.4%
[12]
  inhibition of growth at 10 µM: 52%
[13]
  inhibition of growth at 10 µM: 29.1%
[14]
  inhibition of growth at 10 µM: 84.6%
[15]
  inhibition of growth at 10 µM: 72.8%
[16]
  inhibition of growth at 10 µM: 77.8%
[17]
  inhibition of growth at 10 µM: 62.4%
[18]
  inhibition of growth at 10 µM: 67.4%
[19]
  inhibition of growth at 10 µM: 42.6%
[20]
  inhibition of growth at 10 µM: 26.7%
[21]
  inhibition of growth at 10 µM: 58.6%
[22]
  inhibition of growth at 10 µM: 73.6%
[23]
  inhibition of growth at 10 µM: 44.1%
[24]
  inhibition of growth at 10 µM: 64.7%
[25]
  inhibition of growth at 10 µM: 44.9%
[26]
  inhibition of growth at 10 µM: 86.6%
[27]
  inhibition of growth at 10 µM: 56.1%
[28]
  IC50: 2.4 µM
[29]
  IC50: 2.4 µM
[30]
  IC50: 13.3 µM
[31]
  IC50: 4.5 µM
[32]
  IC50: 16.5 µM
[33]
  Activity: 50.47%
[34]
  Activity: 0.73%
[35]
  Activity: 7.15%
[36]
  Activity: 87.15%
[37]
  Activity: 0.48%
[38]
  Activity: 5.2%
[39]
  Activity: 7.18%
[40]
  inhibition of growth at 10 µM: 37%
